Numbered stars: 1 amine (or outer) side, 2 acyl side, 3 side chain; on linkers, the order of the positions; unused ones are H or OH. Bridge positions count the residues as written; N and C are the ends. Square brackets hold non-standard residues; d marks the D form. Peptide text beside a SMILES is read from it. * marks the point of attachment. ξ: configuration not given here. Phe(3,4-Cl2) = N[C@@H](Cc1ccc(Cl)c(Cl)c1)C(=O)O; Phe(4-COOH) = N[C@@H](Cc1ccc(C(=O)O)cc1)C(=O)O; Bip = N[C@@H](Cc1ccc(-c2ccccc2)cc1)C(=O)O; Phe(3-Me) = Cc1cccc(C[C@H](N)C(=O)O)c1; Phe(4-F) = N[C@@H](Cc1ccc(F)cc1)C(=O)O; γGlu = O=C(O)[C@H](CCC(=O)[*:2])N[*:1]; Cha = N[C@@H](CC1CCCCC1)C(=O)O; Cit = NC(=O)NCCC[C@H](N)C(=O)O; Thr(3ξ) = CC(O)[C@H](N)C(=O)O; 12Ado = NCCCCCCCCCCCC(=O)O; dDab = NCC[C@@H](N)C(=O)O; Carboxymethyl = O=C(O)C*; Orn = NCCC[C@H](N)C(=O)O; Aun = NCCCCCCCCCCC(=O)O; Dab = NCC[C@H](N)C(=O)O; Dap = NC[C@H](N)C(=O)O; AEEA = NCCOCCOCC(=O)O; ξDab = NCCC(N)C(=O)O; ξC = NC(CS)C(=O)O
molecular target: T1, PD-1/PD-L1 interaction (PE-labeled human PD-L1-Ig binding to Jurkat cell line over-expressing human PD-1) (Homo sapiens, UniProt Q15116); experiment: Jurkat-PD-1 Cell Binding High-Content Screening Assay (CBA); type: cell-based; conditions: Jurkat cell line over-expressing human PD-1; PE-labeled PD-L1-Ig 20 nM final; read-out: Jurkat hPD1-PDL1 IC50
T1 construct: expressed in transfected cells; host or cells: Jurkat
Summary of the method: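 Read-out is high-content imaging of cell-bound phycoerythrin-tagged PD-L1-Ig on fixed, Hoechst-counterstained Jurkat cells that over-express human PD-1. Compound exposure lasts 2 h at 37° C before the labeled ligand (20 nM final) is added for a further hour.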

T1 sequence (Q15116 25-288): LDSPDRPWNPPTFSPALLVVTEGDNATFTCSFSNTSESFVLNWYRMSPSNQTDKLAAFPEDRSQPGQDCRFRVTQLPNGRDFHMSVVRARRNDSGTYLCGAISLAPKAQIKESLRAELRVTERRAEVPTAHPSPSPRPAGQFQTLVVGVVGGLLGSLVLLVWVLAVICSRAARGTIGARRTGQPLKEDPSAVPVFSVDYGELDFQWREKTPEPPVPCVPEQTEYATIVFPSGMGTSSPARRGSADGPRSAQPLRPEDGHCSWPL

Row | IC50 [nM] | Compound
1 | 15 | CC(=O)NCCCC[C@@H]1NC(=O)[C@H](C(C)C)NC(=O)[C@H](CC2CCCCC2)NC(=O)[C@H](CCN)NC(=O)[C@@H](CC(C)C)NC(=O)[C@H](CCCN)NC(=O)[C@H](Cc2ccc(O)cc2)NC(=O)[C@H](Cc2ccc(-c3ccccc3)cc2)NC(=O)[C@H](C(C)C)NC(=O)[C@H](Cc2c[nH]c3ccccc23)NC(=O)[C@H](CC(=O)O)NC(=O)[C@H](Cc2ccc(C(=O)O)cc2)NC(=O)[C@H](Cc2ccc(OCC(=O)O)cc2)NC(=O)CSC[C@@H](C(=O)N[C@H](CCN)C(=O)NCCCCCCCCCCC(=O)O)NC1=O [Compound 3404] ({CH2CO}-Y(Carboxymethyl)[Phe(4-COOH)]DWV[Bip]Y[Orn][dL][Dab][Cha]VK(Ac)C[dDab][Aun]-OH; thioether N-14)
2 | 11.1 | Cc1cccc(C[C@@H]2NC(=O)[C@H](CC(=O)O)NC(=O)[C@H](Cc3ccc(OCC(=O)O)cc3)NC(=O)[C@H](Cc3ccc(F)cc3)NC(=O)CSC[C@@H](C(=O)N[C@@H](CCN)C(=O)NCCOCCOCC(=O)NCCCCCCCCCCC(=O)O)NC(=O)[C@H](CC(=O)O)NC(=O)[C@H](C(C)C)NC(=O)[C@H](CC3CCCCC3)NC(=O)[C@H](CCN)NC(=O)[C@@H](CC(C)C)NC(=O)[C@H](CCCN)NC(=O)[C@H](Cc3ccc(OCC(=O)O)cc3)NC(=O)[C@H](Cc3ccc(-c4ccccc4)cc3)NC(=O)[C@H](Cc3ccc(OCC(=O)O)cc3)NC2=O)c1 [Compound 3799] ({CH2CO}-[Phe(4-F)]Y(Carboxymethyl)D[Phe(3-Me)]Y(Carboxymethyl)[Bip]Y(Carboxymethyl)[Orn][dL][Dab][Cha]VDC[Dab][AEEA][Aun]-OH; thioether N-14)
3 | 63.1 | Cc1cccc(C[C@@H]2NC(=O)[C@H](CC(=O)O)NC(=O)[C@H](Cc3ccc(OCC(=O)O)cc3)NC(=O)[C@H](Cc3ccc(OCC(=O)O)cc3)NC(=O)CSC[C@@H](C(=O)NC(CCN)C(=O)NCCCCCCCCCCCC(=O)O)NC(=O)[C@H](C(C)O)NC(=O)[C@H](C(C)C)NC(=O)[C@H](CC3CCCCC3)NC(=O)[C@H](Cc3cnc[nH]3)NC(=O)[C@@H](CC(C)C)NC(=O)[C@H](CCCN)NC(=O)[C@H](CCCNC(N)=O)NC(=O)[C@H](Cc3ccc(-c4ccccc4)cc3)NC(=O)[C@H](C(C)C)NC2=O)c1 (stereo partly drawn) [Compound 3502] ({CH2CO}-Y(Carboxymethyl)Y(Carboxymethyl)D[Phe(3-Me)]V[Bip][Cit][Orn][dL]H[Cha]V[Thr(3ξ)]C[ξDab][12Ado]-OH; thioether N-14)
4 | 15.3 | CC(C)C[C@H]1NC(=O)[C@H](CCCN)NC(=O)[C@H](C(C)C)NC(=O)[C@H](Cc2ccc(-c3ccccc3)cc2)NC(=O)[C@H](C(C)C)NC(=O)[C@H](Cc2c[nH]c3ccccc23)NC(=O)[C@H](CC(=O)O)NC(=O)[C@H](Cc2ccc(OCC(=O)O)cc2)NC(=O)[C@H](C(C)O)NC(=O)CSC[C@@H](C(=O)N[C@@H](CCN)C(=O)NCCOCCOCC(=O)N[C@@H](CCC(=O)NCCCCCCCCCCC(=O)O)C(=O)O)NC(=O)[C@H](CCCCN)NC(=O)[C@H](C(C)O)NC(=O)[C@H](CC2CCCCC2)NC(=O)[C@H](CCN)NC1=O (stereo partly drawn) [Compound 3663] ({CH2CO}-[Thr(3ξ)]Y(Carboxymethyl)DWV[Bip]V[Orn][dL][Dab][Cha][Thr(3ξ)]KC[Dab][AEEA][γGlu][Aun]-OH; thioether N-14)
5 | 42.4 | CC(C)C[C@H]1NC(=O)[C@H](CCCN)NC(=O)[C@H](C(C)C)NC(=O)[C@H](Cc2ccc(-c3ccccc3)cc2)NC(=O)[C@H](C(C)C)NC(=O)[C@H](Cc2c[nH]c3ccccc23)NC(=O)[C@H](CC(=O)O)NC(=O)[C@H](Cc2ccc(OCC(=O)O)cc2)NC(=O)[C@H](CN)NC(=O)CSCC(C(=O)N[C@H](CCC(=O)O)C(=O)NCCCCCCCCCCC(=O)O)NC(=O)[C@H]([C@@H](C)O)NC(=O)[C@H](C(C)C)NC(=O)[C@H](CC2CCCCC2)NC(=O)[C@H](Cc2cnc[nH]2)NC1=O (stereo partly drawn) [Compound 1122] ({CH2CO}-[Dap]Y(Carboxymethyl)DWV[Bip]V[Orn][dL]H[Cha]VT[ξC][dE][Aun]-OH; thioether N-14)

The next lines start with the molecule.

Row | Compound | IC50 [nM]
6 | Cc1cccc(C[C@@H]2NC(=O)[C@H](CC(=O)O)NC(=O)[C@H](Cc3ccc(OCC(=O)O)cc3)NC(=O)[C@H](Cc3ccc(OCC(=O)O)cc3)NC(=O)CSC[C@@H](C(=O)N[C@@H](CCN)C(=O)NCCCCCCCCCCC(=O)O)NC(=O)[C@H]([C@@H](C)O)NC(=O)[C@H](C(C)C)NC(=O)[C@H](CC3CCCCC3)NC(=O)[C@H](CCN)NC(=O)[C@@H](CC(C)C)NC(=O)[C@H](CCCN)NC(=O)[C@H](CCCNC(N)=O)NC(=O)[C@H](Cc3ccc(-c4ccccc4)cc3)NC(=O)[C@H](C(C)C)NC2=O)c1 [Compound 2828] ({CH2CO}-Y(Carboxymethyl)Y(Carboxymethyl)D[Phe(3-Me)]V[Bip][Cit][Orn][dL][Dab][Cha]VTC[Dab][Aun]-OH; thioether N-14) | 77.4
7 | CC(C)C[C@H]1NC(=O)[C@H](CCCN)NC(=O)[C@H](Cc2ccc(O)cc2)NC(=O)[C@H](Cc2ccc(-c3ccccc3)cc2)NC(=O)[C@H](C(C)C)NC(=O)[C@H](Cc2ccc(Cl)c(Cl)c2)NC(=O)[C@H](CC(=O)O)NC(=O)[C@H](Cc2ccc(OCC(=O)O)cc2)NC(=O)[C@H](CN)NC(=O)CSC[C@@H](C(=O)N[C@@H](CCN)C(=O)NCCOCCOCC(=O)NCCCCCCCCCCC(=O)O)NC(=O)[C@H](CCCN)NC(=O)[C@H](C(C)C)NC(=O)[C@H](CC2CCCCC2)NC(=O)[C@H](CCN)NC1=O [Compound 1310] ({CH2CO}-[Dap]Y(Carboxymethyl)D[Phe(3,4-Cl2)]V[Bip]Y[Orn][dL][Dab][Cha]V[Orn]C[Dab][AEEA][Aun]-OH; thioether N-14) | 64.6
8 | CC(C)C[C@H]1NC(=O)[C@H](CCCN)NC(=O)[C@H](C(C)C)NC(=O)[C@H](Cc2ccc(-c3ccccc3)cc2)NC(=O)[C@H](C(C)C)NC(=O)[C@H](Cc2c[nH]c3ccccc23)NC(=O)[C@H](CC(=O)O)NC(=O)[C@H](Cc2ccc(OCC(=O)O)cc2)NC(=O)[C@H](CN)NC(=O)CSC[C@@H](C(=O)N[C@@H](CCN)C(=O)NCCCCCCCCCCC(=O)O)NC(=O)[C@H](CCN)NC(=O)[C@H](C(C)O)NC(=O)[C@H](CC2CCCCC2)NC(=O)[C@H](CCN)NC1=O (stereo partly drawn) [Compound 3676] ({CH2CO}-[Dap]Y(Carboxymethyl)DWV[Bip]V[Orn][dL][Dab][Cha][Thr(3ξ)][Dab]C[Dab][Aun]-OH; thioether N-14) | 9.2
9 | CC(C)C[C@@H]1NC(=O)[C@H](Cc2c[nH]c3ccccc23)NC(=O)[C@H](CC(=O)O)NC(=O)[C@H](Cc2ccc(OCC(=O)O)cc2)NC(=O)[C@H](CN)NC(=O)CSC[C@@H](C(=O)N[C@@H](CCN)C(=O)NCCCCCCCCCCC(=O)O)NC(=O)[C@H](Cc2cnc[nH]2)NC(=O)[C@H](C(C)O)NC(=O)[C@H](CC2CCCCC2)NC(=O)[C@H](CCN)NC(=O)[C@@H](CC(C)C)NC(=O)[C@H](CCCN)NC(=O)[C@H](C(C)C)NC(=O)[C@H](Cc2ccc(-c3ccccc3)cc2)NC1=O (stereo partly drawn) [Compound 3689] ({CH2CO}-[Dap]Y(Carboxymethyl)DWL[Bip]V[Orn][dL][Dab][Cha][Thr(3ξ)]HC[Dab][Aun]-OH; thioether N-14) | 29.9

Reference: patent US20260022142A1, “MACROCYCLIC IMMUNOMODULATORS” (Bristol-Myers Squibb Company, priority 2022, published 2026)
